The results in this text go back to patent US20250049036A1 (priority 2021, published 2025).

Assay [1] has as its system Phytophthora infestans. The assay is described as follows: microbe, parasite or virus in culture. The class given is cell-based. The conditions noted are these: 168 h, read-out: control compared to the untreated check.
Assay [2] concerns Botrytis cinerea. The assay is described as follows: Botrytis cinerea liq. (BOTRCI) spore growth inhibition in liquid medium, 96-well microtiter plate, OD 405 nm. The class given is cell-based. The conditions noted are these: spore suspension in YBA liquid medium, 22° C., 5-6 days, OD at 405 nm, read-out: control compared to the untreated check. How it is done:
Yeast bacterial peptone and sodium acetate (YBA) liquid medium containing a BOTRCI (10^4 spores/ml) spore suspension was prepared. For the inhibition assay, each test compound was solved in dimethyl sulfoxide. 100 μl of the test compound in media-solution was added to a 96-well microtiter plate, consequently, the same volume (100 μl) of spore suspension was added to the well making the final test concentrations and the plate was incubated at 22° C. for 5-6 days. The growth inhibition was evaluated by measuring the OD at 405 nm. Percent inhibition was calculated with the below formula:
Where T=treatment, C=control, and B=blank

For assay [3], the system named is Pyricularia oryzae. As to the kind of experiment: microbe, parasite or virus in culture. The class given is cell-based. Conditions: 168 h, read-out: control compared to the untreated check.
Assay [4] deals with Parastagonospora nodorum. The assay is described as follows: Parastagonospora nodorum (PARANO) spore growth inhibition in liquid medium, 96-well microtiter plate, OD 600. The format is cell-based. Conditions: spore suspension in PDB liquid medium, 18° C., 5-6 days, OD at 600, read-out: control compared to the untreated check. Put shortly:
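Read-out is percent growth inhibition from OD at 600 after 5-6 days at 18° C. Compounds, dissolved in DMSO, were diluted in potato dextrose broth and combined in equal volume with a 10^5 spores/ml suspension of PARANO.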

The test system of assay [5] is Phakopsora pachyrhizi. As to the kind of experiment: Phakopsora pachyrhizi test on soybean, preventive, greenhouse. The format is in vivo. The conditions noted are these: preventive spray on soybean, inoculated one day after treatment, read-out: control (efficacy, disease severity) compared to the untreated check. The method in brief:
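Preventive protocol: plants inoculated with a 2×10^5 P. pachyrhizi conidial suspension one day after spray application at the stated rate, then incubated at 22-24 °C and 80-90% RH. Compound was applied from 2% DMSO/acetone diluted in emulsified water.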

Assay [6] relates to Botrytis cinerea. As to the kind of experiment: Botrytis cinerea (gray mold) mycelial radial growth on potato dextrose agar. The class given is cell-based. The conditions noted are these: 168 h, 22° C., seven days, read-out: control compared to the untreated check. How it is done: The compounds were dissolved in 0.3% dimethyl sulfoxide and then added to potato dextrose agar medium just prior to dispensing it into petri dishes. 5 mL medium, with the compound in the desired concentration, was dispensed into 60 mm sterile petri-plates. After solidification, each plate was seeded with a 5 mm size mycelial disc taken from the periphery of an actively growing virulent culture plate. The plates were incubated in growth chambers at 22° C. temperature and 90% relative humidity for seven days and the radial growth was measured and compared to the one of the untreated control.

Assay [7] concerns Botrytis cinerea. The assay is described as follows: Botrytis cinerea test on tomato, preventive, greenhouse. The conditions noted are these: preventive spray on bean/chili plants (heading: tomato), inoculated one day after treatment, read-out: control (efficacy, disease severity) compared to the untreated check. The class given is in vivo.
The subject of assay [8] is Colletotrichum capsici. As to the kind of experiment: Colletotrichum capsici (anthracnose) mycelial radial growth on potato dextrose agar. The format is cell-based. The conditions noted are these: Colletotrichum truncatum, 168 h, 25° C., seven days, read-out: control compared to the untreated check. The method, then: The compounds were dissolved in 0.3% dimethyl sulfoxide and then added to potato dextrose agar medium just prior to dispensing it into petri dishes. 5 mL medium, with the compound in the desired concentration, was dispensed into 60 mm sterile petri-plates. After solidification, each plate was seeded with a 5 mm size mycelial disc taken from the periphery of an actively growing virulent culture plate. The plates were incubated in growth chambers at 25° C. temperature and 60% relative humidity for seven days and the radial growth was measured and compared to the one of the untreated control.

Structures are written as SMILES.

`CC(C)(COc1ccccn1)NC(=O)c1cnc2c(c1)CCC2` [Compound 202, N-(2-methyl-1-(pyridin-2-yloxy)propan-2-yl)-6,7-dihydro-5H-cyclopenta[b]pyridine-3-carboxamide]: the inhibition of growth at 300 ppm in assay [1] and in assay [2] was not below 70% each time. As for `Cn1ccc2cc(C(=O)NC(C)(C)COc3ccnc(Cl)c3)cnc21` [Compound 229, N-(1-((2-chloropyridin-4-yl)oxy)-2-methylpropan-2-yl)-1-methyl-1H-pyrrolo[2,3-b]pyridine-5-carboxamide], the inhibition of growth at 300 ppm in assay [1] was not below 70%. In the case of `COc1cc(C(O)C(C)(C)NC(=O)c2cnc3ccsc3c2)ccc1F` (stereo not shown) [Compound 119, N-(1-(4-fluoro-3-methoxyphenyl)-1-hydroxy-2-methylpropan-2-yl)thieno[3,2-b] pyridine-6-carboxamide], the inhibition of growth at 300 ppm in assay [3], in assay [1] and in assay [4] was not below 70% in each case. The pest or weed control at 500 ppm in assay [5] was not below 70%.

For the compound `CC(C)(COC(=O)c1ccccc1C(F)(F)F)NC(=O)c1cnc2c(c1)CCC2` [Compound 148, 2-(6,7-dihydro-5H-cyclopenta[b]pyridine-3-carboxamido)-2-methylpropyl 2-(trifluoromethyl)benzoate], the inhibition of growth at 300 ppm in assay [6] and in assay [2] was not below 70% in each case.

With `COc1cc(C(O)C(C)(C)NC(=O)c2cnc3c(ccn3C)c2)ccc1F` (stereo not shown) [Compound 123, N-(1-(4-fluoro-3-methoxyphenyl)-1-hydroxy-2-methylpropan-2-yl)-1-methyl-1H-pyrrolo[2,3-b]pyridine-5-carboxamide], in assay [1], the inhibition of growth at 300 ppm was not below 70%. For the compound `CC(C)(COc1ccccn1)NC(=O)c1cnc2ccsc2c1` [Compound 212, N-(2-methyl-1-(pyridin-2-yloxy)propan-2-yl)thieno[3,2-b] pyridine-6-carboxamide], the inhibition of growth at 300 ppm in assay [1] was not below 70%. For `CC(C)(Cc1ccccc1)NC(=O)c1cnc2cc[nH]c2c1` [Compound 95, N-(2-methyl-1-phenylpropan-2-yl)-1H-pyrrolo[3,2-b] pyridine-6-carboxamide], the inhibition of growth at 300 ppm in assay [1] and in assay [4] was not below 70% each time. Also, the pest or weed control at 500 ppm in assay [7] and in assay [5] was not below 70% throughout. As to `CC(C)(COc1ccc(F)cn1)NC(=O)c1cnc2ccsc2c1` [Compound 207, N-(1-((5-fluoropyridin-2-yl)oxy)-2-methylpropan-2-yl)thieno[3,2-b] pyridine-6-carboxamide], the inhibition of growth at 300 ppm in assay [1] was not below 70%. Consider `CC(C)(COC(=O)c1cccc(F)c1)NC(=O)c1cnc2cc[nH]c2c1` [Compound 156, 2-methyl-2-(1H-pyrrolo[3,2-b]pyridine-6-carboxamido)propyl 3-fluorobenzoate], for which the inhibition of growth at 300 ppm in assay [1] was not below 70%. As to `C=C(C)CC(C)(COc1ccccc1F)NC(=O)c1cnc2cc[nH]c2c1` (stereo not shown) [Compound 175, N-(1-(2-fluorophenoxy)-2,4-dimethylpent-4-en-2-yl)-1H-pyrrolo[3,2-b] pyridine-6-carboxamide], the inhibition of growth at 300 ppm in assay [8], in assay [1] and in assay [4] was not below 70% throughout. In the case of `Cc1cccc(CC(NC(=O)c2cnc3ccsc3c2)C(C)(C)O)c1` (stereo not shown) [Compound 114, N-(3-hydroxy-3-methyl-1-(m-tolyl)butan-2-yl)thieno[3,2-b] pyridine-6-carboxamide], the inhibition of growth at 300 ppm in assay [1] is not below 70%. `O=C(NCC1(c2ccccc2)CC1)c1cc2c(nc1Cl)CCC2` [Compound 248, 2-chloro-N-((1-phenylcyclopropyl)methyl)-6,7-dihydro-5H-cyclopenta[b]pyridine-3-carboxamide]: the inhibition of growth at 300 ppm in assay [1] is not below 70%. With `O=C(NC1(Cc2ccccc2)CC1)c1cc2c(nc1Cl)CCC2` [Compound 246, N-(1-benzylcyclopropyl)-2-chloro-6,7-dihydro-5H-cyclopenta[b]pyridine-3-carboxamide], the inhibition of growth at 300 ppm in assay [1] was not below 70%.

On to `Cn1cc(Br)c2cc(C(=O)NC(C)(C)COc3ccc(F)cn3)cnc21` [Compound 216, 3-bromo-N-(1-((5-fluoropyridin-2-yl)oxy)-2-methylpropan-2-yl)-1-methyl-1H-pyrrolo[2,3-b]pyridine-5-carboxamide], for which, in assay [1], the inhibition of growth at 300 ppm is not below 70%. Consider `CC(CCc1ccccc1)NC(=O)c1cc2c(nc1Cl)CCC2` (stereo not shown) [Compound 250, 2-chloro-N-(4-phenylbutan-2-yl)-6,7-dihydro-5H-cyclopenta[b]pyridine-3-carboxamide], for which, in assay [1], the inhibition of growth at 300 ppm was not below 70%. Consider `C=C(C)CC(C)(COc1ccccc1F)NC(=O)c1cnc2ccsc2c1` (stereo not shown) [Compound 159, N-(1-(2-fluorophenoxy)-2,4-dimethylpent-4-en-2-yl)thieno[3,2-b] pyridine-6-carboxamide], for which the inhibition of growth at 300 ppm in assay [6] and in assay [4] was not below 70% in each case. On to `CC(C)(COc1ccc(F)cn1)NC(=O)c1cnc2c(c1)CCC2` [Compound 233, N-(1-((5-fluoropyridin-2-yl)oxy)-2-methylpropan-2-yl)-6,7-dihydro-5H-cyclopenta[b]pyridine-3-carboxamide], for which the inhibition of growth at 300 ppm in assay [1] is not below 70%. Take `COc1nc2c(ccn2C)cc1C(=O)NC(C)(C)Cc1ccccc1` [Compound 91, 6-methoxy-1-methyl-N-(2-methyl-1-phenylpropan-2-yl)-1H-pyrrolo[2,3-b] pyridine-5-carboxamide]: the inhibition of growth at 300 ppm in assay [1] is not below 70%. With `COc1nc2c(cc1C(=O)NC(C)CCc1ccccc1)CCC2` (stereo not shown) [Compound 249, 2-methoxy-N-(4-phenylbutan-2-yl)-6,7-dihydro-5H-cyclopenta[b]pyridine-3-carboxamide], the inhibition of growth at 300 ppm in assay [1] and in assay [4] was not below 70% throughout. For `CC(C)(COc1ccc(C#N)cn1)NC(=O)c1cnc2c(c1)CCC2` [Compound 223, N-(1-((5-cyanopyridin-2-yl)oxy)-2-methylpropan-2-yl)-6,7-dihydro-5H-cyclopenta[b]pyridine-3-carboxamide], the inhibition of growth at 300 ppm in assay [1], in assay [4] and in assay [2] was not below 70% each time. In the case of `Cc1ccc(COCC(C)(C)NC(=O)c2cnc3c(c2)c(Br)cn3C)c(C)c1` [Compound 201, 3-bromo-N-(1-((2,4-dimethylbenzyl)oxy)-2-methylpropan-2-yl)-1-methyl-1H-pyrrolo[2,3-b]pyridine-5-carboxamide], in assay [1], the inhibition of growth at 300 ppm is not below 70%. As to `CC(C)(CO)NC(=O)c1cnc2ccsc2c1` [Compound 111, N-(1-hydroxy-2-methylpropan-2-yl)thieno[3,2-b] pyridine-6-carboxamide], the inhibition of growth at 300 ppm in assay [1] is not below 70%. With `Cc1cccc(CC(C)(C)NC(=O)c2cnc3c(ccn3C)c2)c1` [Compound 27, 1-methyl-N-(2-methyl-1-(m-tolyl)propan-2-yl)-1H-pyrrolo[2,3-b] pyridine-5-carboxamide], the inhibition of growth at 300 ppm in assay [1] and in assay [4] was not below 70% throughout. Turning to `Cn1ccc2ncc(C(=O)NC(C)(C)Cc3ccccc3)cc21` [Compound 86, 1-methyl-N-(2-methyl-1-phenylpropan-2-yl)-1H-pyrrolo[3,2-b] pyridine-6-carboxamide], the inhibition of growth at 300 ppm in assay [1] and in assay [4] was not below 70% in each case. The pest or weed control at 500 ppm in assay [7] and in assay [5] was not below 70% each time. `Cn1ccc2cc(C(=O)NC(C)(C)COc3ccc(F)cn3)cnc21` [Compound 230, N-(1-((5-fluoropyridin-2-yl)oxy)-2-methylpropan-2-yl)-1-methyl-1H-pyrrolo[2,3-b]pyridine-5-carboxamide]: the inhibition of growth at 300 ppm in assay [8], in assay [1], in assay [4] and in assay [2] was not below 70% throughout.
